In PMC6150412, “Design, Synthesis, and Evaluation of Novel Phenolic Acid/Dipeptide/Borneol Hybrids as Potent Angiotensin Converting Enzyme (ACE) Inhibitors with Anti-hypertension Activity” (Molecules : A Journal of Synthetic Chemistry and Natural …, 2017):

Columns and labels:
[1] = target: T1, angiotensin converting enzyme (ACE) (Oryctolagus cuniculus, UniProt P12822); assay: In vitro ACE inhibition assay (hippuric acid release from HHL); type: biochemical; settings: HHL substrate, pH 8.3, 37 °C, 15 min; five concentrations 0.01–10 µM; read-out: ACE-inhibitory activity IC50
T1 construct: purchased Sigma-aldrich, St. Louis, MO, USA A-6778
T1 sequence (P12822 34-1310): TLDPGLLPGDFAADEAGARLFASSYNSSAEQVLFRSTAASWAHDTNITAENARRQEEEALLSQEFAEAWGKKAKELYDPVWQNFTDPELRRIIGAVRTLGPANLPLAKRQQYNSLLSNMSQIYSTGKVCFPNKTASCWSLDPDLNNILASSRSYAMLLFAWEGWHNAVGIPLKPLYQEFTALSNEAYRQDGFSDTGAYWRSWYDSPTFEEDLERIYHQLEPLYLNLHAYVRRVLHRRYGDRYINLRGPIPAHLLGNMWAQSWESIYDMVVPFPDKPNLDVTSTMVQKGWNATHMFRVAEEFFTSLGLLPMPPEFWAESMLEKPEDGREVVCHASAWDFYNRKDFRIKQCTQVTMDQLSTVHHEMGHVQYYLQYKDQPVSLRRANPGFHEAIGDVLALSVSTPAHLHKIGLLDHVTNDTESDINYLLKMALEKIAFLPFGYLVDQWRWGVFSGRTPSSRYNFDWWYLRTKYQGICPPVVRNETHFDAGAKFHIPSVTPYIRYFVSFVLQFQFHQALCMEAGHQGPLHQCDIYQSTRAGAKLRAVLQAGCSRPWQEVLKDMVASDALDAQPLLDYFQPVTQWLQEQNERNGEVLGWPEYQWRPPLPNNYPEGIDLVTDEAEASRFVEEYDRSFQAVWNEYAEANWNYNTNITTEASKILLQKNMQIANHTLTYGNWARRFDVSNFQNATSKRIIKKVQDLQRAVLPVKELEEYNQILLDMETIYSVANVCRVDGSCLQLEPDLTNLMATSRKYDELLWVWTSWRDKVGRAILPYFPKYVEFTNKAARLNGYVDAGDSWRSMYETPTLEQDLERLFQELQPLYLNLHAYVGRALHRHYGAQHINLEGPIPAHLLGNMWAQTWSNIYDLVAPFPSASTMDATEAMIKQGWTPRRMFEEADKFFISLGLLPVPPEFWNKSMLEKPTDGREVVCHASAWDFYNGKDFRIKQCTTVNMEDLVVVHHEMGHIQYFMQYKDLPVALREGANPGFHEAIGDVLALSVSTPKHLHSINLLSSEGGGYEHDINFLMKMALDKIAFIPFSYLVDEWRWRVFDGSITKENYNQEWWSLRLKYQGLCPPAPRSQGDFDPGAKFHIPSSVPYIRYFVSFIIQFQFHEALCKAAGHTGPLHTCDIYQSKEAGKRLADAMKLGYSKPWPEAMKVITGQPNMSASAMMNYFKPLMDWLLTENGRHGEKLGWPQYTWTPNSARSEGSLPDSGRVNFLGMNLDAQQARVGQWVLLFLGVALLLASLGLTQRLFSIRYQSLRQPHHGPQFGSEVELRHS
Procedure: The in vitro ACE-inhibitory activity of the newly synthesized compounds was evaluated using ACE inhibition assay (Sigma-aldrich, St. Louis, MO, USA, No. A-6778). The experiments were carried out for all the designed compounds (7a–7h), for ACE-inhibitory activity at five different concentrations (0.01–10 µM). Lisinopril, a well-known ACE inhibitor drug, was used as standard for comparison with the inhibitory activity of synthesized compounds. The ACE-inhibitory activity can be calculated by the following equation: ACE-inhibitory activity (inhibition rate %) = [(Ablank1 − Asample)/(Ablank1 − Ablank2)] × 100, where blank 1: Positive control (without ACE inhibition) and blank 2: Reagent blank. Then we measured and calculated the IC50 values of the designed compounds (7a–7h).
The preliminary biological investigations were conducted in vitro using the ACE-inhibition assay. […] That is, the activity of these compounds gradually declined when the size of the amino acid side chain increased. Besides, the influence of phenolic acids on ACE-inhibitory activity was more obvious following the order: protocatechuic acid > ferulic acid > gallic acid > 3,4-dihydroxybenzene acid. That is, substituents in positions 3 and 4 in the benzene ring are beneficial to the increase of ACE-inhibitory activity. At the same time, the shorter the amino side chain in phenolic acids, the better the ACE-inhibitory activity.

[2] = tested on: spontaneously hypertensive rats (SHRs); assay: Acute antihypertensive test, single intragastric dose, tail-cuff BP; type: in vivo, rat; settings: for Duration of antihypertensive activity / Reduction in blood pressure (systolic arterial pressure) compared with lisinopril: single oral dose; for Reduction in blood pressure (systolic arterial pressure) compared with lisinopril: same molar dose as lisinopril
Procedure: (§1) All the experiments were approved by the Institutional Animal Ethics Committee of Northwest University. Experiments were carried out on spontaneously hypertension rats (SHRs) that were 9–10 weeks old and weighed 200–220 g. SHRs treated with normal saline were used as controls. Lisinopril was used as a standard drug. Blood pressure (BP) was recorded automatically every day by the indirect tail-cuff method using an electrosphygmomanometer (BP-2010A Storage Pressure Meter). […] The BP were measured before and 0.5, 1, 2, 3, 4, 5 and 6 h after a single dose of intragastrical administration of active compounds.
(§2) Figure 4 (A,B), the acute antihypertensive activity of compounds 7a and 7g in spontaneously hypertension rats (SHRs) for single dose administration (dosing time: 0 min); (C) the therapeutic antihypertensive activity of compounds 7a and 7g in SHRs for 7 days treatment (dosing time: 0 day; blood pressure (BP) measured time: 9:30–11:30 am). Data are presented as mean ± SEM, n = 6. The BP was determined with a BP-2010A Storage Pressure Meter. This system measures BP by recording the cuff pressure at which the interrupted blood flow returns to the tail. Before drug administration, training consisted of five sessions over 3 days. The SHRs were placed into a thermostatically controlled Lucite box of the Visitech system BP2010A, and heated on a heated pad maintained at 37 °C for 2 min before BP measurement started. The tail root of SHR was surrounded by an inflatable tubular sleeve, and a pulse electron detector was placed in the root of the tails. Then BP was measured after the computer provided a stable signal. The BP for the session was accepted as the average of five BP readings that were within 10 mm Hg. The average BP values were calculated by employing the ANOVA method.

[3] = tested on: spontaneously hypertensive rats (SHRs); assay: Therapeutic antihypertensive test, 7 consecutive days oral treatment, tail-cuff BP; type: in vivo, rat; settings: for Maximum antihypertensive effect compared with lisinopril (20 mg/kg/day): 100 mg/kg daily, oral, 7 days; for Blood pressure during repeated treatment: 100 mg/kg, Po. 7 days
Procedure: as §1, §2

Row | IC50 [1] [µM] | Structure (SMILES) | Onset of antihypertensive activity after oral treatment [2] [h] | Duration of antihypertensive activity [2] | Reduction in blood pressure (systolic arterial pressure) compared with lisinopril [2] | Maximum antihypertensive effect compared with lisinopril (20 mg/kg/day) [3] | Blood pressure during repeated treatment [3]
1 | 6.76 ± 0.96 | CC(C)[C@H](NC(=O)c1ccc(O)c(O)c1)C(=O)N1CCC[C@H]1C(=O)OC1CC2CCC1(C)C2(C)C (stereo partly shown) [Compound 7a] | 0.5 | four | slightly better than that of lisinopril | approximately equivalent to that of lisinopril | decreased remarkably on the second day after oral administration
2 | 13.9 ± 1.61 | CC(C)[C@H](NC(=O)Cc1ccc(O)c(O)c1)C(=O)N1CCC[C@H]1C(=O)OC1CC2CCC1(C)C2(C)C (stereo partly shown) [Compound 7b] | – | – | – | – | –
3 | 11.9 ± 1.82 | COc1cc(/C=C/C(=O)N[C@H](C(=O)N2CCC[C@H]2C(=O)OC2CC3CCC2(C)C3(C)C)C(C)C)ccc1O (stereo partly shown) [Compound 7c] | – | – | – | – | –
4 | 13.5 ± 2.02 | CC(C)[C@H](NC(=O)c1cc(O)c(O)c(O)c1)C(=O)N1CCC[C@H]1C(=O)OC1CC2CCC1(C)C2(C)C (stereo partly shown) [Compound 7d] | – | – | – | – | –
5 | 10.6 ± 1.72 | CC(C)C[C@H](NC(=O)c1ccc(O)c(O)c1)C(=O)N1CCC[C@H]1C(=O)OC1CC2CCC1(C)C2(C)C (stereo partly shown) [Compound 7e] | – | – | – | – | –
6 | 14 ± 1.84 | CC(C)C[C@H](NC(=O)Cc1ccc(O)c(O)c1)C(=O)N1CCC[C@H]1C(=O)OC1CC2CCC1(C)C2(C)C (stereo partly shown) [Compound 7f] | – | – | – | – | –
7 | 6.88 ± 0.85 | COc1cc(/C=C/C(=O)N[C@@H](CC(C)C)C(=O)N2CCC[C@H]2C(=O)OC2CC3CCC2(C)C3(C)C)ccc1O (stereo partly shown) [Compound 7g] | 0.5 | four | slightly better than that of lisinopril | approximately equivalent to that of lisinopril | decreased remarkably on the second day after oral administration
8 | 13.2 ± 2.47 | CC(C)C[C@H](NC(=O)c1cc(O)c(O)c(O)c1)C(=O)N1CCC[C@H]1C(=O)OC1CC2CCC1(C)C2(C)C (stereo partly shown) [Compound 7h] | – | – | – | – | –

Row | Structure (SMILES) | IC50 [1] [µM] | Onset of antihypertensive activity after oral treatment [2] [h] | Duration of antihypertensive activity [2] | Reduction in blood pressure (systolic arterial pressure) compared with lisinopril [2] | Maximum antihypertensive effect compared with lisinopril (20 mg/kg/day) [3] | Blood pressure during repeated treatment [3]
9 | NCCCC[C@H](N[C@@H](CCc1ccccc1)C(=O)O)C(=O)N1CCC[C@H]1C(=O)O [Lisinopril, reference compound] | < 0.01 | – | – | – | – | –
